Assay results as given in ChEMBL document CHEMBL1201862, “PubChem BioAssay data set” (2004).
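Assay format: 96-well plates, 48-hour exposure. The concentration for 50% growth inhibition is given as GI50.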 Calls of active or inactive are those of the source. Cut-off read from the data, not from the text of the source: active = GI50 up to about 1.1 µM and inactive = higher.

Experiments:
Test in all cases: NCI-60 cell line screen, 48 h
CCRF-CEM = system: CCRF-CEM
EKVX = system: EKVX
HCC 2998 = system: HCC 2998
HL-60 = system: HL-60
HOP-62 = system: HOP-62
HOP-92 = system: HOP-92
Hs-578T = system: Hs-578T
LOX IMVI = system: LOX IMVI
MCF7 = system: MCF7
MDA-N = system: MDA-N
NCI-H226 = system: NCI-H226
NCI-H460 = system: NCI-H460
NCI-H522 = system: NCI-H522
OVCAR-5 = system: OVCAR-5
RPMI-8226 = system: RPMI-8226
SF-268 = system: SF-268
SN12C = system: SN12C
SR = system: SR
SW-620 = system: SW-620
TK-10 = system: TK-10

Measured: GI50

COc1ccc2c(C)cc(N/N=C/c3ccc(C)s3)nc2c1
inactive: CCRF-CEM 5.37 µM | EKVX 5.4 µM | HCC 2998 6.11 µM | HL-60 7.05 µM | HOP-62 18.7 µM | HOP-92 19.5 µM | Hs-578T 31.6 µM | LOX IMVI 3.46 µM | MCF7 6.24 µM | MDA-N 10.4 µM | NCI-H226 13 µM | NCI-H460 5.27 µM | NCI-H522 3.45 µM | OVCAR-5 12.6 µM | RPMI-8226 3.55 µM | SF-268 25.8 µM | SN12C 11.9 µM | SR 5.18 µM | SW-620 13.1 µM | TK-10 19 µM

COC1=CC(=O)c2c(O)c3c(c(O)c2C1=O)C[C@](C)(O)C[C@@H]3O
inactive: CCRF-CEM 5.7 µM | EKVX 8.04 µM | HCC 2998 3.67 µM | HL-60 1.62 µM | HOP-62 8.45 µM | HOP-92 9.48 µM | Hs-578T 18.2 µM | LOX IMVI 2.54 µM | MCF7 4.89 µM | MDA-N 1.88 µM | NCI-H226 23.9 µM | NCI-H460 1.65 µM | NCI-H522 4.52 µM | OVCAR-5 12.7 µM | RPMI-8226 8.11 µM | SF-268 5.25 µM | SN12C 3.63 µM | SR 2.92 µM | SW-620 3.92 µM | TK-10 23.2 µM

CC(N)/C(N)=N/O (stereo not given)
inactive: CCRF-CEM > 100 µM | EKVX > 100 µM | HCC 2998 > 100 µM | HL-60 > 100 µM | HOP-62 > 100 µM | HOP-92 > 100 µM | Hs-578T > 100 µM | LOX IMVI > 100 µM | MCF7 > 100 µM | MDA-N > 100 µM | NCI-H226 > 100 µM | NCI-H460 > 100 µM | NCI-H522 > 100 µM | OVCAR-5 > 100 µM | RPMI-8226 > 100 µM | SF-268 > 100 µM | SN12C > 100 µM | SR > 100 µM | SW-620 > 100 µM | TK-10 > 100 µM

C=C1C(=O)OC2C1C(OC(=O)/C(C)=C/C)CC1(C)C(=O)CCC(=C)C21 (stereo not given)
inactive: CCRF-CEM 2.3 µM | EKVX 16.3 µM | HCC 2998 9.73 µM | HL-60 1.89 µM | HOP-62 16.9 µM | HOP-92 1.62 µM | Hs-578T 27.8 µM | LOX IMVI 3.94 µM | MCF7 4.49 µM | MDA-N 5.07 µM | NCI-H226 20.7 µM | NCI-H460 13.3 µM | NCI-H522 2.54 µM | OVCAR-5 14.8 µM | RPMI-8226 1.95 µM | SF-268 10.7 µM | SN12C 2.15 µM | SR 2.06 µM | SW-620 2.93 µM | TK-10 4.89 µM

O=C(/C=C/c1cccc(Br)c1)N1CCN(CCOC(c2ccccc2)c2ccccc2)CC1
inactive: CCRF-CEM 17.1 µM | EKVX > 100 µM | HCC 2998 46.6 µM | HL-60 17.4 µM | HOP-62 > 100 µM | HOP-92 23 µM | Hs-578T > 100 µM | LOX IMVI 24.2 µM | MCF7 35 µM | MDA-N 41.4 µM | NCI-H226 45 µM | NCI-H460 31.8 µM | NCI-H522 29.1 µM | OVCAR-5 > 100 µM | RPMI-8226 12.2 µM | SF-268 > 100 µM | SN12C 31.7 µM | SR 16.1 µM | SW-620 50.8 µM | TK-10 > 100 µM

CCOC(=O)NC(C(=O)OCC)(N1CCN(c2cc3c(cc2F)c(=O)c(C(=O)O)cn3CC)CC1)C(F)(F)F (stereo not given)
inactive: CCRF-CEM > 100 µM | EKVX 13.2 µM | HCC 2998 > 100 µM | HL-60 > 100 µM | HOP-62 > 100 µM | HOP-92 > 100 µM | Hs-578T > 100 µM | LOX IMVI > 100 µM | MCF7 > 100 µM | MDA-N > 100 µM | NCI-H226 > 100 µM | NCI-H460 > 100 µM | NCI-H522 > 100 µM | OVCAR-5 > 100 µM | RPMI-8226 > 100 µM | SF-268 > 100 µM | SN12C > 100 µM | SR > 100 µM | SW-620 > 100 µM | TK-10 > 100 µM
